Counter-ions that a name gives are not always drawn.
Each molecule was assayed against human GlyT1c transporter (Homo sapiens (Human), UniProt P48067) (assay: Radioligand binding assay using recombinant CHO cell membranes expressing human GlyT1). Conditions: human GlyT1c-expressing CHO cell membranes; read-out: radioligand binding Kiapp.
Excerpt: 2. Radioligand binding assays using recombinant CHO cell membranes expressing human GlyT1: […]

Sequence of human GlyT1c transporter (P48067 whole entry): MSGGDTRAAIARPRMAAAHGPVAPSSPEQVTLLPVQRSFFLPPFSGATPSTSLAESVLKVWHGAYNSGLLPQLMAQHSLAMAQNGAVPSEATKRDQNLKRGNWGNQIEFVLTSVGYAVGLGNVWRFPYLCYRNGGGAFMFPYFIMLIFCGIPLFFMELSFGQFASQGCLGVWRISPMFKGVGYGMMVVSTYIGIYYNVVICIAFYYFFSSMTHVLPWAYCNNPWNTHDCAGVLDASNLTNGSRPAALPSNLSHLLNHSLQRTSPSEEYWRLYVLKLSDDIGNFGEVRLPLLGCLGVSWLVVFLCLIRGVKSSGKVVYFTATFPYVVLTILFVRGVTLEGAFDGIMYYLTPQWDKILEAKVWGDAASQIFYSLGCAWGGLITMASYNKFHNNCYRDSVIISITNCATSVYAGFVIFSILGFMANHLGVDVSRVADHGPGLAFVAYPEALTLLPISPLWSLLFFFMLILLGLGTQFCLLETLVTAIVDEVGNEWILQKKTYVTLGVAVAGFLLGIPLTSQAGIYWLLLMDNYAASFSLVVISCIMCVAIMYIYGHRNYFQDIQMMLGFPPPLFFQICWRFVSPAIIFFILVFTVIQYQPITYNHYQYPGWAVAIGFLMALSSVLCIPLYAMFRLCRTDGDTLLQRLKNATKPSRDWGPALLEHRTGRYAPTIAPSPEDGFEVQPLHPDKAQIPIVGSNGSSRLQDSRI

SMILES | Ki [nM]
CCCS(=O)(=O)NCCCc1ccc2c(c1)C(Cc1ccccc1Cl)C(N)CC2 (stereo not shown) [Example 211, N-{3-[7-Amino-8-(2-chlorobenzyl)-5,6,7,8-tetrahydronaphthalen-2-yl]propyl}propane-1-sulfonamide hydrochloride] | ≤ 1000
NC1CCc2ccc(CCCNS(=O)(=O)CC3CC3)cc2C1Cc1ccccc1Cl (stereo not shown) [Example 212, N-{3-[7-Amino-8-(2-chloro-benzyl)-5,6,7,8-tetrahydro-naphthalen-2-yl]-propyl}-C-cyclopropyl-methanesulfonamide hydrochloride] | ≤ 1000
CCCS(=O)(=O)NCCCc1ccc2c(c1)C(Cc1ccc(F)cc1)C(N)CC2 (stereo not shown) [Example 213, N-{3-[7-Amino-8-(4-fluorobenzyl)-5,6,7,8-tetrahydronaphthalen-2-yl]propyl}propane-1-sulfonamide hydrochloride] | ≤ 100
CCCS(=O)(=O)NCCCc1ccc2c(c1)C(Cc1cccc(F)c1)C(NC(C)=O)CC2 (stereo not shown) [Example 214, N-[1-(3-Fluorobenzyl)-7-{3-[(propylsulfonyl)amino]propyl}-1,2,3,4-tetrahydronaphthalen-2-yl]acetamide] | ≤ 10000
CCCS(=O)(=O)NCCCc1ccc2c(c1)C(Cc1ccc(F)cc1)C(NC(C)=O)CC2 (stereo not shown) [Example 215, N-[1-(4-Fluorobenzyl)-7-{3-[(propylsulfonyl)amino]propyl}-1,2,3,4-tetrahydronaphthalen-2-yl]acetamide] | ≤ 10000
CC(=O)NC1CCc2ccc(CCCNS(=O)(=O)CC3CC3)cc2C1Cc1ccccc1 (stereo not shown) [Example 216, N-[1-Benzyl-7-(3-{[(cyclopropylmethyl)sulfonyl]amino}propyl)-1,2,3,4-tetrahydronaphthalen-2-yl]acetamide] | ≤ 10000
CCCS(=O)(=O)NCCCc1ccc2c(c1)C(Cc1ccccc1)C(NC(C)=O)CC2 (stereo not shown) [Example 217, N-[1-Benzyl-7-{3-[(propylsulfonyl)amino]propyl}-1,2,3,4-tetrahydronaphthalen-2-yl]acetamide] | ≤ 10000
CC(=O)NC1CCc2ccc(CCCNS(=O)(=O)CC3CC3)cc2C1Cc1cccc(F)c1 (stereo not shown) [Example 218, N-[7-(3-{[(Cyclopropylmethyl)sulfonyl]amino}propyl)-1-(3-fluorobenzyl)-1,2,3,4-tetrahydronaphthalen-2-yl]acetamide] | ≤ 10000
CCCS(=O)(=O)NCCCc1ccc2c(c1)C(Cc1cccc(F)c1)C(NCC)CC2 (stereo not shown) [Example 219, Propane-1-sulfonic acid {3-[7-ethylamino-8-(3-fluoro-benzyl)-5,6,7,8-tetrahydronaphthalen-2-yl]-propyl}-amide hydrochloride] | ≤ 100
CCCS(=O)(=O)NCCCc1ccc2c(c1)C(Cc1ccc(F)cc1)C(NCC)CC2 (stereo not shown) [Example 220, N-{3-[7-(Ethylamino)-8-(4-fluorobenzyl)-5,6,7,8-tetrahydronaphthalen-2-yl]propyl}propane-1-sulfonamide hydrochloride] | ≤ 1000
CCNC1CCc2ccc(CCCNS(=O)(=O)CC3CC3)cc2C1Cc1cccc(F)c1 (stereo not shown) [Example 221, C-Cyclopropyl-N-{3-[7-ethylamino-8-(3-fluoro-benzyl)-5,6,7,8-tetrahydro-naphthalen-2-yl]-propyl}-methanesulfonamide hydrochloride] | ≤ 100
CCCS(=O)(=O)NCCCc1ccc2c(c1)C(Cc1ccccc1Cl)C(NCC)CC2 (stereo not shown) [Example 222, Propane-1-sulfonic acid {3-[8-(2-chloro-benzyl)-7-ethylamino-5,6,7,8-tetrahydronaphthalen-2-yl]-propyl}-amide hydrochloride] | ≤ 1000
CCCS(=O)(=O)NCCCc1ccc2c(c1)C(Cc1ccccc1)C(NCC)CC2 (stereo not shown) [Example 223, N-{3-[8-Benzyl-7-(ethylamino)-5,6,7,8-tetrahydronaphthalen-2-yl]propyl}propane-1-sulfonamide hydrochloride] | ≤ 100
CCNC1CCc2ccc(CCCNS(=O)(=O)CC3CC3)cc2C1Cc1ccccc1 (stereo not shown) [Example 224, N-{3-[8-Benzyl-7-(ethylamino)-5,6,7,8-tetrahydronaphthalen-2-yl]propyl}-1-cyclopropylmethanesulfonamide hydrochloride] | ≤ 100

Other lines, results leading:

Ki [nM] | SMILES
≤ 100 | CCNC1CCc2ccc(CNS(=O)(=O)c3cn(C)cn3)cc2C1Cc1ccc(F)cc1 (stereo not shown) [Example 199, 1-Methyl-1H-imidazole-4-sulfonic acid [7-ethylamino-8-(4-fluoro-benzyl)-5,6,7,8-tetrahydro-naphthalen-2-ylmethyl]-amide hydrochloride]
≤ 100 | CCNC1CCc2ccc(CNS(=O)(=O)c3cnn(C)c3)cc2C1Cc1cccc(F)c1 (stereo not shown) [Example 200, 1-Methyl-1H-pyrazole-4-sulfonic acid [7-ethylamino-8-(3-fluoro-benzyl)-5,6,7,8-tetrahydronaphthalen-2-ylmethyl]-amide hydrochloride]
≤ 100 | CCCS(=O)(=O)NCCCc1ccc2c(c1)C(Cc1ccc(Cl)cc1)C(N)CC2 (stereo not shown) [Example 201, N-{3-[7-Amino-8-(4-chlorobenzyl)-5,6,7,8-tetrahydronaphthalen-2-yl]propyl}propane-1-sulfonamide hydrochloride]
≤ 100 | NC1CCc2ccc(CCCNS(=O)(=O)CC3CC3)cc2C1Cc1ccc(Cl)cc1 (stereo not shown) [Example 202, N-{3-[7-Amino-8-(4-chlorobenzyl)-5,6,7,8-tetrahydronaphthalen-2-yl]propyl}-1-cyclopropylmethanesulfonamide hydrochloride]
≤ 10 | CCCS(=O)(=O)NCCCc1ccc2c(c1)C(Cc1ccc(Cl)c(Cl)c1)C(N)CC2 (stereo not shown) [Example 203, N-{3-[7-Amino-8-(3,4-dichlorobenzyl)-5,6,7,8-tetrahydronaphthalen-2-yl]propyl}propane-1-sulfonamide hydrochloride]
≤ 100 | NC1CCc2ccc(CCCNS(=O)(=O)CC3CC3)cc2C1Cc1ccc(F)c(F)c1 (stereo not shown) [Example 204, N-{3-[7-Amino-8-(3,4-difluoro-benzyl)-5,6,7,8-tetrahydro-naphthalen-2-yl]-propyl}-C-cyclopropyl-methanesulfonamide hydrochloride]
≤ 100 | CCCS(=O)(=O)NCCCc1ccc2c(c1)C(Cc1ccc(F)c(F)c1)C(N)CC2 (stereo not shown) [Example 206, N-{3-[7-Amino-8-(3,4-difluoro-benzyl)-5,6,7,8-tetrahydronaphthalen-2-yl]propyl}propane-1-sulfonamide hydrochloride]
≤ 100 | NC1CCc2ccc(CCCNS(=O)(=O)CC3CC3)cc2C1Cc1ccccc1 (stereo not shown) [Example 207, N-{3-[7-Amino-8-benzyl-5,6,7,8-tetrahydronaphthalen-2-yl]propyl}-1-cyclopropylmethanesulfonamide trifluoroacetate]
≤ 100 | NC1CCc2ccc(CCCNS(=O)(=O)CC3CC3)cc2C1Cc1ccc(F)cc1 (stereo not shown) [Example 208, N-{3-[7-Amino-8-(4-fluorobenzyl)-5,6,7,8-tetrahydronaphthalen-2-yl]propyl}-1-cyclopropylmethanesulfonamide hydrochloride]
≤ 100 | CCCS(=O)(=O)NCCCc1ccc2c(c1)C(Cc1cccc(F)c1)C(N)CC2 (stereo not shown) [Example 209, N-{3-[7-Amino-8-(3-fluorobenzyl)-5,6,7,8-tetrahydronaphthalen-2-yl]propyl}propane-1-sulfonamide hydrochloride]
≤ 100 | NC1CCc2ccc(CCCNS(=O)(=O)CC3CC3)cc2C1Cc1cccc(F)c1 (stereo not shown) [Example 210, N-{3-[7-Amino-8-(3-fluorobenzyl)-5,6,7,8-tetrahydronaphthalen-2-yl]propyl}-1-cyclopropylmethanesulfonamide hydrochloride]

Reference: patent US9067871B2, “Aminotetraline derivatives, pharmaceutical compositions containing them, and their use in therapy” (ABBVIE DEUTSCHLAND GMBH & CO KG, priority 2009, dated 2015)
